Experiment [1] concerns the target LMP7 (purified human immunoproteasome) (Homo sapiens, UniProt P28062). In words: Determination of LMP7 activity (fluorescence intensity assay, Suc-LLVY-AMC). The class given is biochemical. As for the experimental part:
Determination of LMP7 Activity
Measurement of LMP7 inhibition is performed in 384 well format based on fluorescence intensity assay.
(§1) Purified human immunoproteasome (0.25 nM) and serial diluted compounds in DMSO (range of concentrations from 30 μM to 15 pM) or controls are incubated for 20 minutes or 120 minutes (long incubation) at 25° C. in assay buffer containing 50 mM Tris pH 7.4, 0.03% SDS, 1 mM EDTA and 1% DMSO. The reaction is initiated by the addition of the fluorogenic peptide substrate, Suc-LLVY-AMC (Bachem I-1395), at a concentration of 40 μM. After 60 minutes of incubation at 37° C., fluorescence intensity is measured at λex=350 nm and λem=450 nm with a fluorescence reader (Perkin Elmer Envision reader or equivalent).
(§2) Unless indicated otherwise the results are obtained after incubation for 20 minutes.

Experiment [2] addresses Beta5 (purified human constitutive proteasome) (Homo sapiens, UniProt P28074). In words: Determination of Beta5 activity (fluorescence intensity assay, Suc-LLVY-AMC). In kind it is biochemical. The method, then: Determination of Beta5 Activity
Measurement of Beta5 inhibition is performed in 384 well format based on fluorescence intensity assay.
as §1, with “constitutive proteasome (1.25” for “immunoproteasome (0.25”
as §2

In the case of `Cc1ccc(C[C@H](NC(=O)CN(c2ccccc2)S(=O)(=O)c2ccccc2)B(O)O)c(C)c1` [Compound No. 35, [(1R)-1-[[2-[N-(benzenesulfonyl)anilino]acetyl]amino]-2-(2,4-dimethylphenyl)ethyl]boronic acid], the IC50 in experiment [1] (incubation for 20 minutes) was less than 0.05 µM. For the same molecule, in experiment [2] (incubation for 20 minutes), the IC50 is 0.05 to 0.5 µM and the “Selectivity LMP7 vs Beta5” value is given as “++++ (++++: 50 ≤ Selectivity < 70)”.

On to `CCN(CCC(=O)N[C@@H](Cc1ccccc1)B(O)O)C(=O)c1ccc(C)cc1` [Compound No. 14, [(1R)-1-[3-[ethyl-(4-methylbenzoyl)amino]propanoylamino]-2-phenyl-ethyl]boronic acid], for which the IC50 is less than 0.05 µM in experiment [1] (incubation for 20 minutes) and 0.5 to 5 µM in experiment [2] (incubation for 20 minutes). For the same molecule, the “Selectivity LMP7 vs Beta5” value in experiment [2] (incubation for 20 minutes) was “+++ (+++: 30 ≤ Selectivity < 50)”.

Consider `CC(C)N(CCC(=O)N[C@@H](Cc1ccccc1)B(O)O)C(=O)c1ccccc1` [Compound No. 9, [(1R)-1-[3-[benzoyl(isopropyl)amino]propanoylamino]-2-phenyl-ethyl]boronic acid], for which, in experiment [1] (incubation for 20 minutes), the IC50 was 0.05 to 0.5 µM. Further, in experiment [2] (incubation for 20 minutes), the IC50 was 0.5 to 5 µM and the “Selectivity LMP7 vs Beta5” value is listed as “+++ (+++: 30 ≤ Selectivity < 50)”.

With `CCN(CC(=O)N[C@@H](Cc1ccc(C)cc1)B(O)O)S(=O)(=O)c1ccccc1` [Compound No. 16, [(1R)-1-[[2-[benzenesulfonyl(ethyl)amino]acetyl]amino]-2-(p-tolyl)ethyl]boronic acid], the IC50 in experiment [1] (incubation for 20 minutes) is less than 0.05 µM. Further, in experiment [2] (incubation for 20 minutes), the IC50 lay within 0.05 to 0.5 µM and the “Selectivity LMP7 vs Beta5” value was “+++ (+++: 30 ≤ Selectivity < 50)”.

Molecule `CCN(CCC(=O)N[C@@H](Cc1ccccc1)B(O)O)C(=O)c1ccccc1` [Compound No. 8, [(1R)-1-[3-[benzoyl(ethyl)amino]propanoylamino]-2-phenyl-ethyl]boronic acid] registered an IC50 in experiment [1] (incubation for 20 minutes) of 0.05 to 0.5 µM. Besides, in experiment [2] (incubation for 20 minutes), the IC50 was 0.5 to 5 µM and the “Selectivity LMP7 vs Beta5” value was “+++ (+++: 30 ≤ Selectivity < 50)”.

Take `CCc1cccc(C[C@H](NC(=O)CCCCS(C)(=O)=O)B(O)O)c1` [Compound No. 22, [(1R)-2-(3-ethylphenyl)-1-(5-methylsulfonylpentanoylamino)ethyl]-boronic acid]: in experiment [1] (incubation for 20 minutes), the half-maximal inhibitory concentration (IC50) was in the range of 0.05 to 0.5 µM.

For `CCN(CCC(=O)N[C@@H](Cc1ccc(C)cc1)B(O)O)S(=O)(=O)CC` [Compound No. 11, [(1R)-1-[3-[ethyl(ethylsulfonyl)amino]propanoylamino]-2-(p-tolyl)ethyl]boronic acid], the IC50 in experiment [1] (incubation for 20 minutes) is less than 0.05 µM.

The molecule `CCN(CC(=O)N[C@@H](Cc1ccccc1)B(O)O)C(=O)c1ccccc1` [Compound No. 17, [(1R)-1-[[2-[benzoyl(ethyl)amino]acetyl]amino]-2-phenyl-ethyl]boronic acid] returned an IC50 in experiment [1] (incubation for 20 minutes) of 0.05 to 0.5 µM.

`CCN(CC(=O)N[C@@H](Cc1ccc(C)cc1C)B(O)O)C(=O)CCl` [Compound No. 37, [(1R)-1-[[2-[(2-chloroacetyl)-ethyl-amino]acetyl]amino]-2-(2,4-dimethylphenyl)ethyl]boronic acid]: the IC50 in experiment [1] (incubation for 20 minutes) lay in the range of 0.05 to 0.5 µM. In addition, in experiment [2] (incubation for 20 minutes), the IC50 is greater than 5 µM and the “Selectivity LMP7 vs Beta5” value is “+++ (+++: 30 ≤ Selectivity < 50)”.

In turn, `CCS(=O)(=O)N(CCC(=O)N[C@@H](Cc1ccc(C)cc1)B(O)O)c1ccccc1` [Compound No. 2, [(1R)-1-[3-(N-ethylsulfonylanilino)propanoylamino]-2-(p-tolyl)ethyl]boronic acid] registered an IC50 in experiment [1] (incubation for 20 minutes) of less than 0.05 µM.

In the case of `CCc1cccc(C[C@H](NC(=O)CCS(C)(=O)=O)B(O)O)c1` [Compound No. 20, [(1R)-2-(3-ethylphenyl)-1-(3-methylsulfonylpropanoylamino)ethyl]-boronic acid], the IC50 lay within 0.05 to 0.5 µM in experiment [1] (incubation for 20 minutes) and 0.5 to 5 µM in experiment [2] (incubation for 20 minutes). Further, the “Selectivity LMP7 vs Beta5” value in experiment [2] (incubation for 20 minutes) is “+++ (+++: 30 ≤ Selectivity < 50)”.

For the molecule `CCN(CCC(=O)N[C@@H](Cc1ccc(C)cc1)B(O)O)S(=O)(=O)c1ccccc1` [Compound No. 5, [(1R)-1-[3-[benzenesulfonyl(ethyl)amino]propanoylamino]-2-(p-tolyl)ethyl]boronic acid], the IC50 in experiment [1] (incubation for 20 minutes) is less than 0.05 µM.

With `CCc1cccc(C[C@H](NC(=O)CCCC(=O)N(C)C)B(O)O)c1` [Compound No. 18, [(1R)-1-[[5-(dimethylamino)-5-oxo-pentanoyl]amino]-2-(3-ethylphenyl)ethyl]boronic acid], the IC50 was 0.5 to 5 µM in experiment [1] (incubation for 20 minutes) and greater than 5 µM in experiment [2] (incubation for 20 minutes). For the same molecule, the “Selectivity LMP7 vs Beta5” value in experiment [2] (incubation for 20 minutes) is listed as “+++ (+++: 30 ≤ Selectivity < 50)”.

With `Cc1ccc(C[C@H](NC(=O)CCN(C)S(=O)(=O)c2ccccc2)B(O)O)cc1` [Compound No. 7, [(1R)-1-[3-[benzenesulfonyl(methyl)amino]propanoylamino]-2-(p-tolyl)ethyl]boronic acid], the IC50 in experiment [1] (incubation for 20 minutes) was less than 0.05 µM.

For `CN(CC(=O)N[C@@H](Cc1ccsc1)B(O)O)C(=O)c1ccccc1C(F)(F)F` [Compound No. 40, [(1R)-1-[[2-[methyl-[2-(trifluoromethyl)benzoyl]amino]acetyl]amino]-2-(3-thienyl)ethyl]boronic acid], the IC50 was 0.5 to 5 µM in experiment [1] (long incubation (120 min)) and greater than 5 µM in experiment [2] (long incubation (120 min)).

In the case of `Cc1ccc(C[C@H](NC(=O)CCN(C(C)C)S(=O)(=O)c2ccccc2)B(O)O)cc1` [Compound No. 6, [(1R)-1-[3-[benzenesulfonyl(isopropyl)amino]propanoylamino]-2-(p-tolyl)ethyl]boronic acid], the IC50 in experiment [1] (incubation for 20 minutes) is less than 0.05 µM.

On to `CN(CCC(=O)N[C@@H](Cc1ccccc1)B(O)O)C(=O)c1ccccc1` [Compound No. 10, [(1R)-1-[3-[benzoyl(methyl)amino]propanoylamino]-2-phenyl-ethyl]boronic acid], for which the IC50 in experiment [1] (incubation for 20 minutes) fell in the range of 0.05 to 0.5 µM.

Turning to `Cc1ccc(C[C@H](NC(=O)CCN(c2ccccc2)S(C)(=O)=O)B(O)O)cc1` [Compound No. 3, [(1R)-1-[3-(N-methylsulfonylanilino)propanoylamino]-2-(p-tolyl)ethyl]boronic acid], the IC50 in experiment [1] (incubation for 20 minutes) is less than 0.05 µM. Moreover, in experiment [2] (incubation for 20 minutes), the IC50 was 0.05 to 0.5 µM and the “Selectivity LMP7 vs Beta5” value was “+++ (+++: 30 ≤ Selectivity < 50)”.

Turning to `Cc1ccc(C[C@H](NC(=O)CCN(C(C)C)S(C)(=O)=O)B(O)O)cc1` [Compound No. 15, [(1R)-1-[3-[isopropyl(methylsulfonyl)amino]propanoylamino]-2-(p-tolyl)ethyl]boronic acid], in experiment [1] (incubation for 20 minutes), the IC50 is 0.05 to 0.5 µM.

`CCN(CC(=O)N[C@@H](Cc1ccc(C)cc1C)B(O)O)S(=O)(=O)c1cccc(C)c1` [Compound No. 31, [(1R)-2-(2,4-dimethylphenyl)-1-[[2-[ethyl(m-tolylsulfonyl)amino]-acetyl]amino]ethyl]boronic acid] showed an IC50 in experiment [1] (incubation for 20 minutes) of less than 0.05 µM. In experiment [2] (incubation for 20 minutes), the IC50 fell in the range of 0.05 to 0.5 µM and the “Selectivity LMP7 vs Beta5” value was “++++ (++++: 50 ≤ Selectivity < 70)”.

Take `CCC(=O)N(CC(=O)N[C@@H](Cc1ccc(C)cc1C)B(O)O)c1ccccc1` [Compound No. 34, [(1R)-2-(2,4-dimethylphenyl)-1-[[2-(N-propanoylanilino)acetyl]amino]-ethyl]boronic acid]: the IC50 in experiment [1] (incubation for 20 minutes) was less than 0.05 µM. Further, in experiment [2] (incubation for 20 minutes), the IC50 lay within 0.5 to 5 µM and the “Selectivity LMP7 vs Beta5” value is on record as “+++++ (+++++: Selectivity ≥ 70)”.

Turning to `CCC(=O)N(CC)CC(=O)N[C@@H](Cc1ccc(C)cc1C)B(O)O` [Compound No. 24, [(1R)-2-(2,4-dimethylphenyl)-1-[[2-[ethyl(propanoyl)amino]acetyl]-amino]ethyl]boronic acid], in experiment [1] (incubation for 20 minutes), the IC50 lay in the range of 0.05 to 0.5 µM. Further, in experiment [2] (incubation for 20 minutes), the IC50 was greater than 5 µM and the “Selectivity LMP7 vs Beta5” value is recorded as “+++++ (+++++: Selectivity ≥ 70)”.

`CCN(CCC(=O)N[C@@H](Cc1ccc(F)cc1)B(O)O)C(=O)c1ccc(OC)cc1` [Compound No. 25, [(1R)-1-[3-[ethyl-(4-methoxybenzoyl)amino]propanoylamino]-2-(4-fluorophenyl)ethyl]boronic acid]: the IC50 was less than 0.05 µM in experiment [1] (incubation for 20 minutes) and 0.5 to 5 µM in experiment [2] (incubation for 20 minutes). Besides, in experiment [2] (incubation for 20 minutes), the “Selectivity LMP7 vs Beta5” value is “++++ (++++: 50 ≤ Selectivity < 70)”.

For `CCN(CCC(=O)N[C@@H](Cc1ccccc1)B(O)O)C(=O)c1ccccc1C` [Compound No. 12, [(1R)-1-[3-[ethyl-(2-methylbenzoyl)amino]propanoylamino]-2-phenyl-ethyl]boronic acid], in experiment [1] (incubation for 20 minutes), the IC50 was in the range of 0.05 to 0.5 µM.

`CCN(CCC(=O)N[C@@H](Cc1ccccc1)B(O)O)C(=O)c1cccc(C)c1` [Compound No. 13, [(1R)-1-[3-[ethyl-(3-methylbenzoyl)amino]propanoylamino]-2-phenyl-ethyl]boronic acid]: the IC50 in experiment [1] (incubation for 20 minutes) is 0.05 to 0.5 µM.

`CC(=O)N(CCC(=O)N[C@@H](Cc1ccccc1)B(O)O)c1ccccc1` [Compound No. 1, [(1R)-1-[3-(N-acetylanilino)propanoylamino]-2-phenyl-ethyl]boronic acid] yielded an IC50 in experiment [1] (incubation for 20 minutes) of 0.05 to 0.5 µM.

As for `CS(=O)(=O)CCC(=O)N[C@@H](Cc1coc2ccccc12)B(O)O` [Compound No. 23, [(1R)-2-(benzofuran-3-yl)-1-(3-methylsulfonylpropanoylamino)ethyl]-boronic acid], in experiment [1] (incubation for 20 minutes), the IC50 is less than 0.05 µM.

A word on the IC50: it is the midpoint of a concentration-inhibition curve.

Source of the values: US10253049B2, “Boronic acid derivatives” (MERCK PATENT GMBH, priority 2014, dated 2019).
